Columns and labels:
[1] = biological target: T1, human glucocorticoid receptor (Homo sapiens, UniProt P04150); test: Glucocorticoid Receptor Binding Assay (I), fluorescence polarization competitor kit (Fluormone GS Red); conditions: purified human recombinant full-length GR
T1 construct: purified human recombinant full-length glucocorticoid receptor (2 nM); purchased Invitrogen Part # 2893
T1 sequence (P04150 1-777): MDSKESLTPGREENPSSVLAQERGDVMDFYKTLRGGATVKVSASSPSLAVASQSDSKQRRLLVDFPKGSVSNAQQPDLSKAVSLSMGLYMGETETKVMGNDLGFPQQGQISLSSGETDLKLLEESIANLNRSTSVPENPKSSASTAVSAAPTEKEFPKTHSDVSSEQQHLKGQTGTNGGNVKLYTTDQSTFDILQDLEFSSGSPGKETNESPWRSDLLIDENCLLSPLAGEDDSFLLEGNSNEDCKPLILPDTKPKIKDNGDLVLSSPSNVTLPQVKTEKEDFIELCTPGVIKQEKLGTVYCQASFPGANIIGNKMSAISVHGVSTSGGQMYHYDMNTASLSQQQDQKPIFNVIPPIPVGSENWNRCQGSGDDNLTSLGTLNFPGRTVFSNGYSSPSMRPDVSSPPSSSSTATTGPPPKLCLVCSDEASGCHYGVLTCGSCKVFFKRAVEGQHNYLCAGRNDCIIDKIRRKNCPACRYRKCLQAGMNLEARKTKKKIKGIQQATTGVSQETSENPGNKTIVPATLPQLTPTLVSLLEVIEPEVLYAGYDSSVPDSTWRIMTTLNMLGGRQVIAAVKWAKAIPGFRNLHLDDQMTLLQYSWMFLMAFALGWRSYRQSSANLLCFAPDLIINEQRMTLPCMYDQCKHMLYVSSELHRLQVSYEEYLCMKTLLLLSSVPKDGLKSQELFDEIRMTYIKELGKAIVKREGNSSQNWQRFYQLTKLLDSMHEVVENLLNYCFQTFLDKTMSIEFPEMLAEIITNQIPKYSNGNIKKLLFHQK
Outline: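 Fluorescence polarization competition: full-length recombinant human GR (2 nM) incubated with 1 nM Fluormone GS Red plus test compound (8.5E-05 to 5 μM) for 2 h at room temperature in the dark before FP read-out.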

[2] = biological target: T2, human full-length glucocorticoid receptor (Homo sapiens, UniProt P04150); test: Glucocorticoid Receptor Binding Assay (II), fluorescence polarization competitor kit (Fluormone GS1); conditions: cell lysate with recombinant human full-length GR
T2 construct: recombinantly expressed human full-length glucocorticoid receptor; purchased PanVera Co., Madison, Wis; P2816
T2 sequence (P04150 1-777): T1 sequence (P04150 1-777)
Description: In order to measure the binding of compounds on the glucocorticoid receptor a commercially available kit was used (Glucocorticoid receptor competitor assay kit, PanVera Co., Madison, Wis., P2816). Briefly, a cell lysate containing recombinantly expressed human full-length glucocorticoid receptor was mixed with a fluorescently labeled glucocorticoid (1 nM Fluormone GS1) in the presence or absence of test compound. After one hour at room temperature, the fluorescence polarization (FP) of the samples were measured. […] Test molecules were analyzed in the concentration range from 2.4 nM to 40 microMolar.

[3] = tested on: AP-1 induced transcriptional activity; test: Cellular Transrepressional Assay (AP-1 luciferase reporter in A549 cells, PMA-activated); format: cell-based; conditions: Homo sapiens, A549, 7 h, pAP-1-Luc, 10 ng/ml PMA, read-out: AP-1 (EC50, nM) (Cellular Transrepression Assay)
Outline: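 A549 cells stably carrying a 7×AP-1-luciferase reporter, stimulated with 10 ng/ml PMA with or without compound (0.1 nM-40 μM) for 7 h. Luciferase luminescence read 10 min after reagent addition; repression is percentage decrease of PMA-alone signal, EC50 by curve fitting.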

Structure (SMILES)	Ki [1]	Ki [2]	EC50 [3]
CC(O)C(C)(C)C(c1ccccc1)c1ccc2c(cnn2-c2ccc(F)cc2)c1 (mixture of isomers) [Example 119, 4-(1-(4-Fluorophenyl)-1H-indazol-5-yl)-3,3-dimethyl-4-phenylbutan-2-ol]	53 nM	26 nM	> 10000 nM
CC(C)(CNC(=O)C(=O)O)[C@H](c1ccccc1)c1ccc2c(cnn2-c2ccc(F)cc2)c1 [Example 24, (R)-2-(3-(1-(4-fluorophenyl)-1H-indazol-5-yl)-2,2-dimethyl-3-phenylpropylamino)-2-oxoacetic acid]	–	351 nM	> 10000 nM
CC(C)CC(c1ccc2c(cnn2-c2ccc(F)cc2)c1)C(C)(C)CNC(=O)C(F)(F)F (stereo not drawn) [Example 25, 2,2,2-trifluoro-N-(3-(1-(4-fluorophenyl)-1H-indazol-5-yl)-2,2,5-trimethylhexyl)acetamide]	–	8.2 nM	> 10000 nM
CC(C)CC(c1ccc2c(cnn2-c2ccc(F)cc2)c1)C(C)(C)CNC(=O)NC(C)(C)CN1CCOCC1 (stereo not drawn) [Example 33, 1-(3-(1-(4-fluorophenyl)-1H-indazol-5-yl)-2,2,5-trimethylhexyl)-3-(2-methyl-1-morpholinopropan-2-yl)urea]	–	74 nM	> 10000 nM
CC(C)CC(c1ccc2c(cnn2-c2ccc(F)cc2)c1)C(C)(C)CNC(=O)CC(F)(F)F (stereo not drawn) [Example 59A, 3,3,3-trifluoro-N-(3-(1-(4-fluorophenyl)-1H-indazol-5-yl)-2,2,5-trimethylhexyl)propanamide]	–	6.9 nM	57 nM
CC(C)CC(c1ccc2c(cnn2-c2ccc(F)cc2)c1)C(C)(C)CNC(N)=O (stereo not drawn) [Example 61, 1-(3-(1-(4-fluorophenyl)-1H-indazol-5-yl)-2,2,5-trimethylhexyl)urea]	–	9.6 nM	371 nM
Cn1ncc2cc([C@H](c3ccccc3)C(C)(C)CNC(=O)CC(F)(F)F)ccc21 [Example 84, (S)—N-(2,2-Dimethyl-3-(1-methyl-1H-indazol-5-yl)-3-phenylpropyl)-3,3,3-trifluoropropanamide]	–	115 nM	> 10000 nM
Cn1ncc2cc([C@H](c3ccccc3)C(C)(C)CNS(=O)(=O)CC(F)(F)F)ccc21 [Example 85, (S)—N-(2,2-Dimethyl-3-(1-methyl-1H-indazol-5-yl)-3-phenylpropyl)-2,2,2-trifluoroethanesulfonamide]	–	2890 nM	> 10000 nM
CC(C)n1ncc2cc([C@H](c3ccccc3)C(C)(C)CNC(=O)CC(F)(F)F)ccc21 [Example 86, (S)—N-(2,2-Dimethyl-3-(1-isopropyl-1H-indazol-5-yl)-3-phenylpropyl)-3,3,3-trifluoropropanamide]	–	13 nM	> 10000 nM
CC(C)n1ncc2cc([C@H](c3ccccc3)C(C)(C)CNS(=O)(=O)CC(F)(F)F)ccc21 [Example 87, (S)—N-(2,2-Dimethyl-3-(1-isopropyl-1H-indazol-5-yl)-3-phenylpropyl)-2,2,2-trifluoroethanesulfonamide]	–	33 nM	> 10000 nM
O=C(CC(F)(F)F)NCC1CC1(c1ccccc1)c1ccc2c(cnn2-c2ccc(F)cc2)c1 (stereo not drawn) [Example 88, 3,3,3-Trifluoro-N-((2-(1-(4-fluorophenyl)-1H-indazol-5-yl)-2-phenylcyclopropyl)methyl)propanamide]	–	86 nM	> 10000 nM
O=S(=O)(CC(F)(F)F)NCC1CC1(c1ccccc1)c1ccc2c(cnn2-c2ccc(F)cc2)c1 (stereo not drawn) [Example 89, 2,2,2-trifluoro-N-((2-(1-(4-fluorophenyl)-1H-indazol-5-yl)-2-phenylcyclopropyl)methyl)ethanesulfonamide]	–	43 nM	> 10000 nM
CC(C)(CNc1nncs1)C(c1ccccc1)c1ccc2c(cnn2-c2ccc(F)cc2)c1 (stereo not drawn) [Example 109, N-(3-(1-(4-Fluorophenyl)-1H-indazol-5-yl)-2,2-dimethyl-3-phenylpropyl)-1,3,4-thiadiazol-2-amine]	–	9.2 nM	43 nM
O=S(=O)(CC(F)(F)F)NCCC(c1ccccc1)c1ccc2c(cnn2-c2ccc(F)cc2)c1 (stereo not drawn) [Example 110, 2,2,2-Trifluoro-N-(3-(1-(4-fluorophenyl)-1H-indazol-5-yl)-3-phenylpropyl)ethanesulfonamide]	–	21 nM	> 10000 nM
O=C(CC(F)(F)F)NCCC(c1ccccc1)c1ccc2c(cnn2-c2ccc(F)cc2)c1 (stereo not drawn) [Example 111, 3,3,3-Trifluoro-N-(3-(1-(4-fluorophenyl)-1H-indazol-5-yl)-3-phenylpropyl)propanamide]	–	12 nM	240 nM
O=C(NCCC(c1ccccc1)c1ccc2c(cnn2-c2ccc(F)cc2)c1)C(F)(F)F (stereo not drawn) [Example 112, 2,2,2-Trifluoro-N-(3-(1-(4-fluorophenyl)-1H-indazol-5-yl)-3-phenylpropyl)acetamide]	–	11 nM	95 nM
CC(C)(CNC(=O)C(F)(F)F)C(c1ccccc1)c1ccc2c(cnn2C2CCCCCC2)c1 (stereo not drawn) [Example 114, N-(3-(1-Cycloheptyl-1H-indazol-5-yl)-2,2-dimethyl-3-phenylpropyl)-2,2,2-trifluoroacetamide]	–	33 nM	> 10000 nM
CC(=O)C(C)(C)C(c1ccccc1)c1ccc2c(cnn2-c2ccc(F)cc2)c1 (stereo not drawn) [Example 120, 4-(1-(4-Fluorophenyl)-1H-indazol-5-yl)-3,3-dimethyl-4-phenylbutan-2-one]	–	21 nM	> 10000 nM
CC(C)(C(O)c1ccccc1)C(c1ccccc1)c1ccc2c(cnn2-c2ccc(F)cc2)c1 (stereo not drawn) [Example 121, 3-(1-(4-fluorophenyl)-1H-indazol-5-yl)-2,2-dimethyl-1,3-diphenylprop an-1-ol]	–	69 nM	3850 nM
CC(C)(C(O)c1cccs1)C(c1ccccc1)c1ccc2c(cnn2-c2ccc(F)cc2)c1 (stereo not drawn) [Example 123, 3-(1-(4-fluorophenyl)-1H-indazol-5-yl)-2,2-dimethyl-3-phenyl-1-(thiophen-2-yl)propan-1-ol]	–	71 nM	> 10000 nM
CC(C)(C(O)Cc1ccccc1)C(c1ccccc1)c1ccc2c(cnn2-c2ccc(F)cc2)c1 (stereo not drawn) [Example 124, 4-(1-(4-fluorophenyl)-1H-indazol-5-yl)-3,3-dimethyl-1,4-diphenylbutan-2-ol]	–	75 nM	> 10000 nM
CC(C)(C(=O)c1ccccc1)C(c1ccccc1)c1ccc2c(cnn2-c2ccc(F)cc2)c1 (stereo not drawn) [Example 125]	–	14 nM	> 10000 nM
CC(C)(C(=O)C1CC1)C(c1ccccc1)c1ccc2c(cnn2-c2ccc(F)cc2)c1 (stereo not drawn) [Example 126]	–	12 nM	> 10000 nM
CC(C)(C(=O)c1cccs1)C(c1ccccc1)c1ccc2c(cnn2-c2ccc(F)cc2)c1 (stereo not drawn) [Example 127]	–	7.8 nM	5870 nM
CC(C)(C(c1ccccc1)c1ccc2c(cnn2-c2ccc(F)cc2)c1)C(O)(c1ccccc1)C(F)(F)F (stereo not drawn) [Example 129, 1,1,1-Trifluoro-4-(1-(4-fluorophenyl)-1H-indazol-5-yl)-3,3-dimethyl-2,4-diphenylbutan-2-ol]	–	26 nM	202 nM
CC(C)(C(c1ccccc1)c1ccc2c(cnn2-c2ccc(F)cc2)c1)C(O)(c1cccs1)C(F)(F)F (stereo not drawn) [Example 130, 1,1,1-Trifluoro-4-(1-(4-fluorophenyl)-1H-indazol-5-yl)-3,3-dimethyl-4-phenyl-2-(thiophen-2-yl)butan-2-ol]	–	252 nM	> 10000 nM
CC(C)(C(=O)C(F)(F)F)C(c1ccccc1)c1ccc2c(cnn2-c2ccc(F)cc2)c1 (stereo not drawn) [Example 131, 1,1,1-Trifluoro-4-(1-(4-fluorophenyl)-1H-indazol-5-yl)-3,3-dimethyl-4-phenylbutan-2-one]	–	20 nM	> 10000 nM
CC(C)(COC(=O)NCC(F)(F)F)C(c1ccccc1)c1ccc2c(cnn2-c2ccc(F)cc2)c1 (stereo not drawn) [Example 132, 3-(1-(4-Fluorophenyl)-1H-indazol-5-yl)-2,2-dimethyl-3-phenylpropyl 2,2,2-trifluoroethylcarbamate]	–	28 nM	> 10000 nM

Source: patent publication US8198311B2, “Modulators of glucocorticoid receptor, AP-1, and/or NF-κB activity and use thereof” (Bristol-Myers Squibb Company, priority 2006, dated 2012)
